Assay results as given in patent US20210060158A1, “AGONIST OF ARYL HYDROCARBON RECEPTOR FOR USE IN CANCER COMBINATION THERAPY” (INSTITUT CURIE, priority 2017, published 2021).

How the values were obtained:
Treg cells = assay: Induction of functional Treg cells upon administration
Description: The impact of a given AHR agonist on Treg cells may be estimated by exposing purified T cells (typically CD4^+ T cells) in vitro with the said agonist. Treg cells are characterized by expression of the transcription factor Foxp3.

[1] = system: dermal mo-DC and MHC class II+ macrophages; assay: Skin mo-DC and macrophage proportions in mice fed I3C-supplemented diet; assay type: in vivo, mouse; conditions: supplemented diet versus control diet
Description: FIG. 4: AhR is involved in mo-DC differentiation in vivo in the mouse. (A-C) Ear skin from individual AhR^-/- mice or WT littermates (A-B), or C57BL/6 mice fed with an experimental diet supplemented or not with indole-3-carbinol […]) (C), was digested to prepare single-cell suspensions. After gating on live CD45^+CD3^-NK1.1^-CD19^-Ly6G^-CD24^- CD11b^+ cells, cells were separated into 5 subsets based on the expression of Ly6C, CD64, MHC II and CCR2. (A) One representative AhR^-/- and WT mouse is shown. (B-C) Proportions of monocytes, early mo-DC, mo-DC, MHC II^+ macrophages and resident MHC II^- macrophages among Ly6C^+ or CD64^+ cells. Each symbol represents an individual mouse (B n=9 in 2 independent experiments, C n=12 in 2 independent experiments).*p<0.05, **p<0.01. (D-E) Cells from the peritoneal lavage were analyzed by flow cytometry. After gating on live CD115^+CD11b^+ cells, cells were separated into MHCII^+CD226^+ cells and ICAM2^+MHCII^- cells. (D) Cell-sorted cells were analyzed after cytospin and Giemsa/May-Grünwald staining. Bar=10 μm. Representative of 2 independent experiments. (E) C57BL/6 mice fed with an experimental diet supplemented or not with […], and treated or not with a cocktail of antibiotics. […] To address the physiological relevance of our findings, we analyzed the role of AhR in mo-DC and mo-Mac differentiation in vivo in the mouse. […]

peritoneal mo-DC = assay: Peritoneal MHCII+CD226+ mo-DC in antibiotics-treated mice fed I3C-supplemented or control diet; assay type: in vivo, mouse; conditions: I3C-supplemented versus control diet, peritoneal lavage
Description: FIG. 4: AhR is involved in mo-DC differentiation in vivo in the mouse. (A-C) Ear skin from individual AhR^-/- mice or WT littermates (A-B), or C57BL/6 mice fed with an experimental diet supplemented or not with indole-3-carbinol […]) (C), was digested to prepare single-cell suspensions. After gating on live CD45^+CD3^-NK1.1^-CD19^-Ly6G^-CD24^- CD11b^+ cells, cells were separated into 5 subsets based on the expression of Ly6C, CD64, MHC II and CCR2. (A) One representative AhR^-/- and WT mouse is shown. (B-C) Proportions of monocytes, early mo-DC, mo-DC, MHC II^+ macrophages and resident MHC II^- macrophages among Ly6C^+ or CD64^+ cells. Each symbol represents an individual mouse (B n=9 in 2 independent experiments, C n=12 in 2 independent experiments).*p<0.05, **p<0.01. (D-E) Cells from the peritoneal lavage were analyzed by flow cytometry. After gating on live CD115^+CD11b^+ cells, cells were separated into MHCII^+CD226^+ cells and ICAM2^+MHCII^- cells. (D) Cell-sorted cells were analyzed after cytospin and Giemsa/May-Grünwald staining. Bar=10 μm. Representative of 2 independent experiments. […] To address whether the decrease of peritoneal mo-DC upon antibiotics treatment was AhR-dependent, we fed antibiotics-treated mice with a […]-supplemented or control diet, and analyzed cells from the peritoneal lavage (FIG. 3E).

[2] = system: IRF4 expression in CD14+ monocytes; assay: IRF4 and MAFB expression in monocytes after 3 h of culture, RT-qPCR; assay type: cell-based, human; conditions: 3 h culture, with IL-4 (FICZ: with IL-4 and TNF-α)
Description: (§1) FIG. 2: AHR is a molecular switch for mo-DC versus mo-Mac differentiation. (A-B) CD14^+ monocytes were infected at day 0 with lentivirus containing sh RNA against AHR, or control sh RNA. After 5 days of culture, cells were analyzed by Immuno Blot (A) or by flow cytometry (B). (A) Silencing quantified based on Immuno Blot stainings. (B) Proportions of DC and macrophages in the culture at day 5. Each symbol represents an individual donor (n=6 in 3 independent experiments). *p<0.05. (C) Monocytes were cultured with MCSF, IL-4 and TNF-α for 5 days, in the presence of various concentrations of FICZ (AHR agonist) or SR1 (AHR inhibitor). Proportions of DC and macrophages at day 5. […] (D-E) CD14^+ monocytes were analyzed directly after isolation, or were cultured for 3h in medium alone or with various combinations of MCSF, IL-4, TNF-α, FICZ or SRI. (D) Relative expression of IRF4 and MAFB measured by RT-qPCR. […] (E) Expression of IRF4 and MAFB at the single cell level was measured by fluorescent in situ hybridization coupled to flow cytometry. […]
To decipher how AHR shapes monocyte fate, we assessed IRF4 and MAFB expression in monocytes after 3 h of culture with various combinations of M-CSF, IL-4, TNF-α, SR1 and FICZ (FIG. 2D). We also analyzed the expression of CYP1A1, a known direct target of AHR (Stockinger et al., 2014), as a control for AHR activation. […]

CD14+ monocytes = assay: Human CD14+ monocyte differentiation into mo-DC versus mo-Mac (culture with M-CSF, IL-4 and TNF-α, flow cytometry at day 5); assay type: cell-based; conditions: monocytes cultured with M-CSF, IL-4 and TNF-α for 5 days, various doses of compound
Description: as §1
FIG. 3: AHR acts on mo-DC differentiation through BLIMP-1. […] PRDM1 expression measured by RT-qPCR. […] Total cells were lyzed at different days and analyzed by Immuno Blot. […] After 5 days of culture, cells were analyzed by Immuno Blot (C) or by flow cytometry (D-E). (C) Silencing quantified based on Immuno Blot stainings. […]

SMILES	induction of functional Treg cells (Treg cells)	MHC class II+ macrophages in the skin [1]	mo-DC in the skin [1]	peritoneal mo-DC differentiation in antibiotics-treated mice (peritoneal mo-DC)	IL-4-induced IRF4 expression [2]	mo-DC development / proportions at day 5 (CD14+ monocytes)	mo-Mac development / proportions at day 5 (CD14+ monocytes)
OCc1c[nH]c2ccccc12 [I3C, indole-3-carbinol]	does not induce functional Treg cells	decreased	significantly increased	restored mo-DC differentiation in antibiotics-treated mice almost up to normal proportions			
CC(C)n1cnc2c(NCCc3ccc(O)cc3)nc(-c3csc4ccccc34)nc21 [SR1, stemregenin-1]					inhibited	decreasing	increased
